The values that follow are results of earlier work, collected in patent US10946011B2 (Martin Pharmaceuticals Inc., priority 2018, dated 2021).

Take `OCC(CO)(CO)NCCCNC(CO)(CO)CO` [BIS-Tris Propane]: the PKa is 6.80.
